The assay addresses Vascular endothelial growth factor receptor 1 (Homo sapiens, UniProt P17948). Put plainly: Displacement of biotinylated VEGF165 from human recombinant VEGFR1.

The structures appear in SMILES notation. Non-standard residues stand in square brackets, D forms with d. Residues, ends and D or L forms follow the SMILES beside them. *: point of attachment. X2 = [N-]=[N+]=N[C@@H](CCCCN)C(=O)*; Pra = C#CC[C@H](N)C(=O)O

In general, IC50 refers to the concentration that inhibits the measured activity by half.

Sequence of Vascular endothelial growth factor receptor 1 (P17948 whole entry): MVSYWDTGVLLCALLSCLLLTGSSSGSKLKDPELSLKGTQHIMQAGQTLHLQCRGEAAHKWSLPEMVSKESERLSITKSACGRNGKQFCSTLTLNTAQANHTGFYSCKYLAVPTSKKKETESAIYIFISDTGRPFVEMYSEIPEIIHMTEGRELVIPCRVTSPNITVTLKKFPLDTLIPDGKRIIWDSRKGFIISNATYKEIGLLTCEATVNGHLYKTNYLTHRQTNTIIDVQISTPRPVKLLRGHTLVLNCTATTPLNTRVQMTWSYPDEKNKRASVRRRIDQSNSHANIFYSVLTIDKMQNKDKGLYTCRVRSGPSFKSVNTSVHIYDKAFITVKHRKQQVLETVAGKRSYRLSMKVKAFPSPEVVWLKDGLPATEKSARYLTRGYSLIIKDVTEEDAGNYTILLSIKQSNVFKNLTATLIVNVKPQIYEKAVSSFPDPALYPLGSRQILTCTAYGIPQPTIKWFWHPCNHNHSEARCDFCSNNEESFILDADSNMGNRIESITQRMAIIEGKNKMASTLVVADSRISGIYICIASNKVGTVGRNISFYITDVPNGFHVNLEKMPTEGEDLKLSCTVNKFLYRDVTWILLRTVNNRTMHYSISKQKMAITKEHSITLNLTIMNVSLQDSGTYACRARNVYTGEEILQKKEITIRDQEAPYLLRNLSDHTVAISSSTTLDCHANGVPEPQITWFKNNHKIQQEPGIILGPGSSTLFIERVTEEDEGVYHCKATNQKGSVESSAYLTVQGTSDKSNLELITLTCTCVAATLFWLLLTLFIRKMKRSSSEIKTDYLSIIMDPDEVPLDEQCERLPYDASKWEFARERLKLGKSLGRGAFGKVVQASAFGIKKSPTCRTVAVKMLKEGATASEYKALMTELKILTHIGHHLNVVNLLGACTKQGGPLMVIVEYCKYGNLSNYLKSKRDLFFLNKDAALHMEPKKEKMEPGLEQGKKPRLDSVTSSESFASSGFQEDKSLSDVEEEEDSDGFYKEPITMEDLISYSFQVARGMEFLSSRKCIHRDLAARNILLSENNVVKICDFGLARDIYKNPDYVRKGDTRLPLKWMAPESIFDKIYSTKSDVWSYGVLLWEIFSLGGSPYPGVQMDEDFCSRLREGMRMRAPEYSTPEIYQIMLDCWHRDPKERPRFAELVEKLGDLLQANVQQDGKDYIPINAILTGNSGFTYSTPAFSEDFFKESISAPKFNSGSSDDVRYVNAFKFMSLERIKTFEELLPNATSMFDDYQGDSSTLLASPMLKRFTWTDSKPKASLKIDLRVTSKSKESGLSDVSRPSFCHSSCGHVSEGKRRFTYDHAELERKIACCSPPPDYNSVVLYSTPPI

For `CSCC[C@@H]1NC(=O)[C@H](CCC(N)=O)NC(=O)[C@H](Cc2cnc[nH]2)NC(=O)Cn2cc(nn2)C[C@@H](C(N)=O)NC(=O)[C@H](Cc2ccc(O)cc2)NC(=O)[C@H](Cc2ccc(O)cc2)NC(=O)[C@H](Cc2ccccc2)NC1=O`, the IC50 is 121 µM.
As to `C#CC[C@H](NC(=O)[C@H](CCC(=O)O)NC(=O)[C@H](CC(C)C)NC(=O)[C@@H]1CCCN1C(=O)[C@H](CCC(=O)O)NC(=O)[C@H](CC(=O)O)NC(=O)[C@H](Cc1ccc(O)cc1)NC(=O)[C@H](CCCCN)N=[N+]=[N-])C(N)=O` (X2-YDEPLE[Pra]-NH2), the half-inhibitory concentration (IC50) is 151 µM.

Source of the values: ChEMBL document CHEMBL1140450, “On-resin cyclization of peptide ligands of the Vascular Endothelial Growth Factor Receptor 1 by copper(I)-catalyzed 1,3-dipolar azide-alkyne cycloaddition” (Bioorg Med Chem Lett, 2007).
